“Also recorded” adds a separate entry of the source.
Key:
[1] = Phase 1 single ascending dose (SAD) trial, plasma pharmacokinetics (Part 1); details: human; for Frel AUC(0-inf)/D / Frel AUC(0-last)/D / Frel Cmax/D: dose normalized comparison to Regimen C 540 mg MC; for AUC(0-t) / AUC(0-inf) / Cmax / half-life / Tmax: male, in vivo, po, single dose; for AUC(0-t) / AUC(0-inf) / Cmax / Tmax: human plasma; for half-life: T1/2, human plasma; for Tmax: median
[2] = Plasma concentrations after single intravenous dose in mice; format: in vivo; details: male, CD-1, mouse, 0.5 mg/kg intravenous, read-out: Terminal elimination half life (converted)
Procedure: Three male 7-9 week old male CD-1 mice from Lingchang were treated intravenously with 0.5 mg/kg of TQS-168. TQS-168 was prepared in solution of 31.6% DMAC+36.8% Ethanol+31.6% Propylene glycol. Blood was collected at 0.5, 3, 10, 30, 60, 120, 240, 480 and 720 minutes after a single dose of TQS-168 and then processed. Blood samples were collected via saphenous vein puncture into a K2EDTA tube, centrifuged at 4° C. at 4600 rpm for 5 minutes and plasma collected and stored at less than −20° C. prior to being analyzed by LC-MS for TQS-168 concentrations. Data are presented as concentration and mean concentration of TQS-168 per volume of plasma (ng/mL), as shown in FIG. 10 (individual mice) and FIG. 11 (average), respectively.

IL-6 = assay: LPS-induced IL-6 secretion from BV2 cells (CBA assay); format: cell-based, murine; details: 1-20 μM
Procedure: Lipopolysaccharide (LPS) is a natural ligand of the TLR4/CD14 complex, which is highly expressed on myeloid cells
LPS was used to induce cytokine secretion from BV-2 cells. Cells were incubated with TQS-168 at various concentrations to assess whether TQS-168 could suppress the LPS-promoted release of various cytokines from in vitro cell cultures. Cytokine secretion was measured by cytometric bead array (CBA) fluorescence-activated cell sorting (FACS).
Briefly, a vial of BV2 frozen stock (1 million cells per ml in complete medium) was thawed into 10 mL of complete medium per vial for a total of 4 vials. The vials were then centrifuged at 1800 rpm for 3 minutes to wash away freezing media. The four vials were then pooled into 25 mL of complete medium. TQS-168 was prepared in DMSO.
Cells were incubated for 24 hours in the presence of medium (negative control), LPS (positive control), DMSO+LPS (positive control, controlling additionally for presence of DMSO in the TQS-168 stock solution), or LPS+TQS-168 at final concentrations of 1 μM, 5 μM, 10 μM, and 20 μM.
After the well plates were incubated overnight for 24 hours, they were centrifuged at 1800 rpm for 5 minutes. Next, 150 μl from each well was transferred to a new set of plates, of which 50 μl was used for CBA. […]

[3] = 90 mg SDD, fasted (Regimen G) versus fed (Regimen F)
[4] = 180 mg HME (Regimen E) compared to MC counterpart (Regimen B)
[5] = 180 mg SDD (Regimen D) compared to MC counterpart (Regimen B)
[6] = MC formulation, 60 mg to 540 mg TQS-168 (9-fold increase in dose)
[7] = MC formulation, 180 mg to 540 mg TQS-168 (3-fold increase in dose)
[8] = SDD fasted, 270 mg (Regimen H) vs 90 mg (Regimen G)
[9] = SDD fasted, 270 mg (Regimen H) vs 180 mg (Regimen D)
[10] = Regimen D 180 mg SDD, geometric mean
[11] = Regimen E 180 mg HME, comparison to Regimen D 180 mg SDD, geometric mean
[12] = Regimen E 180 mg HME, geometric mean
[13] = 60 mg, Regimen A: 60 mg TQS-168 MC oral suspension, fasted, geometric mean
[14] = 60 mg, Regimen A: 60 mg TQS-168 MC oral suspension, fasted
[15] = 90 mg, Regimen F: 90 mg TQS-168 SDD oral suspension, fed (high fat breakfast), geometric mean
[16] = 90 mg, Regimen G: 90 mg TQS-168 SDD oral suspension, fasted, geometric mean
[17] = 90 mg, Regimen G: 90 mg TQS-168 SDD oral suspension, fasted
[18] = 180 mg, Regimen B: 180 mg TQS-168 MC oral suspension, fasted, geometric mean
[19] = 180 mg, Regimen D: 180 mg TQS-168 SDD oral suspension, fasted, geometric mean
[20] = 180 mg, Regimen E: 180 mg TQS-168 HME oral suspension, fasted, geometric mean
[21] = 180 mg, Regimen B: 180 mg TQS-168 MC oral suspension, fasted
[22] = 180 mg, Regimen D: 180 mg TQS-168 SDD oral suspension, fasted
[23] = 180 mg, Regimen E: 180 mg TQS-168 HME oral suspension, fasted
[24] = 270 mg, Regimen H: 270 mg TQS-168 SDD oral suspension, fasted, geometric mean
[25] = 270 mg, Regimen H: 270 mg TQS-168 SDD oral suspension, fasted
[26] = 540 mg, Regimen C: 540 mg TQS-168 MC oral suspension, fasted, geometric mean
[27] = 540 mg, Regimen C: 540 mg TQS-168 MC oral suspension, fasted

CC(C)(C)c1ccc(-c2nc3ccccc3[nH]2)cc1 [TQS-168, 2-(4-tert-butylphenyl)-1H-benzimidazole]
increase in AUC(0-inf) [1, 3]: ~14%
increase in Cmax [1, 3]: approximately 136%
fold increase in geometric mean AUC(0-inf) [1, 4]: 2.06 fold
fold increase in geometric mean AUC(0-last) [1, 4]: 2.14 fold
fold increase in geometric mean Cmax [1, 4]: 2.32 fold
fold increase in geometric mean AUC(0-inf) [1, 5]: 3.45 fold
fold increase in geometric mean AUC(0-last) [1, 5]: 3.64 fold
fold increase in geometric mean Cmax [1, 5]: 4.11 fold
fold increase in AUC(0-24) [1, 6]: 20.2 fold
fold increase in AUC(0-inf) [1, 6]: 21.2 fold
fold increase in Cmax [1, 6]: 12.1 fold
fold increase in AUC(0-24) [1, 7]: 8.8 fold
fold increase in AUC(0-inf) [1, 7]: 9.5 fold
fold increase in Cmax [1, 7]: 6.1 fold
fold increase in AUC(0-inf) [1, 8]: 4.29 fold
fold increase in Cmax [1, 8]: 2.14 fold
increase in AUC(0-inf) [1, 9]: ~26%
increase in Cmax [1, 9]: approximately 8.7%
Frel AUC(0-inf)/D [1, 10]: 118%
Frel AUC(0-last)/D [1, 10]: 120%
Frel Cmax/D [1, 10]: 218%
Frel AUC(0-inf) [1, 11]: 59.6%
Frel AUC(0-last) [1, 11]: 58.9%
Frel Cmax [1, 11]: 56.6%
Frel AUC(0-inf)/D [1, 12]: 70.4%
Frel AUC(0-last)/D [1, 12]: 70.9%
Frel Cmax/D [1, 12]: 124%
AUC(0-t) ([1]; 60 mg, AUC(0-24), Regimen A: 60 mg TQS-168 MC oral suspension, fasted, geometric mean): 0.0712 µg·h/mL
AUC(0-inf) [1, 13]: 0.0727 µg·h/mL
AUC(0-t) ([1]; 60 mg, AUC(0-last), Regimen A: 60 mg TQS-168 MC oral suspension, fasted, geometric mean): 0.0676 µg·h/mL
Cmax [1, 14]: 0.11 µM
Cmax [1, 13]: 0.0267 µg/mL
half-life [1, 13]: 3.06 h
Tmax [1, 14]: 1 h
AUC(0-t) ([1]; 90 mg, AUC(0-24), Regimen F: 90 mg TQS-168 SDD oral suspension, fed (high fat breakfast), geometric mean): 0.168 µg·h/mL
AUC(0-t) ([1]; 90 mg, AUC(0-24), Regimen G: 90 mg TQS-168 SDD oral suspension, fasted, geometric mean): 0.192 µg·h/mL
AUC(0-inf) [1, 15]: 0.171 µg·h/mL
AUC(0-inf) [1, 16]: 0.195 µg·h/mL
AUC(0-t) ([1]; 90 mg, AUC(0-last), Regimen F: 90 mg TQS-168 SDD oral suspension, fed (high fat breakfast), geometric mean): 0.166 µg·h/mL
AUC(0-t) ([1]; 90 mg, AUC(0-last), Regimen G: 90 mg TQS-168 SDD oral suspension, fasted, geometric mean): 0.189 µg·h/mL
Cmax [1, 15]: 0.0471 µg/mL
Cmax ([1]; 90 mg, Regimen F: 90 mg TQS-168 SDD oral suspension, fed): 0.19 µM
Cmax [1, 17]: 0.44 µM
Cmax [1, 16]: 0.111 µg/mL
half-life [1, 15]: 3.52 h
half-life [1, 16]: 4.85 h
Tmax ([1]; 90 mg, Regimen F: 90 mg TQS-168 SDD oral suspension, fed (high fat breakfast)): 1.5 h
Tmax [1, 17]: 0.5 h
AUC(0-t) ([1]; 180 mg, AUC(0-24), Regimen B: 180 mg TQS-168 MC oral suspension, fasted, geometric mean): 0.163 µg·h/mL
AUC(0-t) ([1]; 180 mg, AUC(0-24), Regimen D: 180 mg TQS-168 SDD oral suspension, fasted, geometric mean): 0.608 µg·h/mL
AUC(0-t) ([1]; 180 mg, AUC(0-24), Regimen E: 180 mg TQS-168 HME oral suspension, fasted, geometric mean): 0.358 µg·h/mL
AUC(0-inf) [1, 18]: 0.18 µg·h/mL
AUC(0-inf) [1, 19]: 0.621 µg·h/mL
AUC(0-inf) [1, 20]: 0.37 µg·h/mL
AUC(0-t) ([1]; 180 mg, AUC(0-last), Regimen B: 180 mg TQS-168 MC oral suspension, fasted, geometric mean): 0.168 µg·h/mL
AUC(0-t) ([1]; 180 mg, AUC(0-last), Regimen D: 180 mg TQS-168 SDD oral suspension, fasted, geometric mean): 0.611 µg·h/mL
AUC(0-t) ([1]; 180 mg, AUC(0-last), Regimen E: 180 mg TQS-168 HME oral suspension, fasted, geometric mean): 0.36 µg·h/mL
Cmax [1, 21]: 0.21 µM
Cmax [1, 18]: 0.0531 µg/mL
Cmax [1, 22]: 0.87 µM
Cmax [1, 19]: 0.218 µg/mL
Cmax [1, 23]: 0.49 µM
Cmax [1, 20]: 0.123 µg/mL
half-life [1, 18]: 7.36 h
half-life [1, 19]: 5.64 h
half-life [1, 20]: 7.25 h
Tmax [1, 21]: 1 h
Tmax [1, 22]: 1 h
Tmax [1, 23]: 1.5 h
AUC(0-t) ([1]; 270 mg, AUC(0-24), Regimen H: 270 mg TQS-168 SDD oral suspension, fasted, geometric mean): 0.736 µg·h/mL
AUC(0-inf) [1, 24]: 0.836 µg·h/mL
AUC(0-t) ([1]; 270 mg, AUC(0-last), Regimen H: 270 mg TQS-168 SDD oral suspension, fasted, geometric mean): 0.801 µg·h/mL
Cmax [1, 25]: 0.95 µM
Cmax [1, 24]: 0.237 µg/mL
half-life [1, 24]: 10.4 h
Tmax [1, 25]: 1.5 h
AUC(0-t) ([1]; 540 mg, AUC(0-24), Regimen C: 540 mg TQS-168 MC oral suspension, fasted, geometric mean): 1.44 µg·h/mL
AUC(0-inf) [1, 26]: 1.6 µg·h/mL
AUC(0-t) ([1]; 540 mg, AUC(0-last), Regimen C: 540 mg TQS-168 MC oral suspension, fasted, geometric mean): 1.54 µg·h/mL
Cmax [1, 27]: 1.29 µM
Cmax [1, 26]: 0.323 µg/mL
half-life [1, 26]: 10.1 h
Tmax [1, 27]: 2.25 h
half-life [2]: 8.4 min
reduction of LPS-induced IL-6 secretion, dose response (IL-6): concentration-dependent; also recorded: dose-responsive inhibition
